Measurements as given in patent publication US4298739A, “Novel carbostyril derivatives” (priority 1977, dated 1981).

Tested on: rabbit platelet
Experiment: ADP-induced aggregation in rabbit platelets (AG-II Aggregometer)
Assay type: cell-based
Set-up: inhibition: dose or concentration left out as unconfirmed
Details: Oryctolagus cuniculus, Platelet, read-out: Inhibition effect on ADP-induced aggregation in rabbit platelet
Procedure, shortened: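 Rabbit citrated PRP, diluted with PPP to 300,000/mm^3 platelets for ADP or 450,000/mm^3 for collagen, was preincubated with compound 1 min at 37° C. before inducer was added. ADP at 7.5×10^-5 M or collagen supernatant in Auren Beronal buffer pH 7.35; transmittance change recorded, percent inhibition derived.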

Row | Structure (SMILES) | inhibition at 100 µM (stock) (10^-4 mole) [%] | inhibition at 10 µM (stock) (10^-5 mole) [%] | inhibition at 1 µM (stock) (10^-6 mole) [%] | inhibition [%]
1 | CC(=O)OC1CCC(N(C)C(=O)CCCOc2ccc3[nH]c(=O)ccc3c2)CC1 (stereo not shown) [compound 3, 6-{3-[N-Methyl-N-(4-acetyloxycyclohexyl)aminocarbonyl]propoxy}carbostyril] | 91.5 | 75 | 20.8 | 
2 | CN(C(=O)CCCOc1ccc2[nH]c(=O)ccc2c1)C1CCCCC1 [compound 16, 6-[3-(N-Methyl-N-cyclohexylaminocarbonyl)propoxy]carbostyril] |  |  |  | 91.7
